Results as given in PMC9886550, “Molecular mechanism of topoisomerase poisoning by the peptide antibiotic albicidin” (Nature Catalysis, 2023).
In brackets after ≈: the same amount, converted by molar mass. Like-named read-outs stand apart in the source and are kept apart here.

Columns and labels:
[1] = test system: M. phlei DSM750; assay: MIC determination (microdilution, M07-A9); format: cell-based; conditions: Mycolicibacterium phlei
Method: (§1) MIC values were determined according to the ninth edition of the Approved Standard M07-A9. The test was carried out for six different bacterial strains (E. coli DSM 1116 (Gram-negative), E. coli BW25113 (Gram-negative), B. subtilis DSM 10 (Gram-positive), M. luteus DSM 1790 (Gram-positive), M. phlei DSM 750 (Gram-positive), S. typhimurium TA 100 (Gram-negative). First, 20 µl of glycerol stock of each strain was inoculated in 20 ml LB (Lennox) followed by incubation overnight at 37 °C, 200 r.p.m. The test inoculum was adjusted by the 0.5 McFarland Standard. Within 15 min of preparation, the adjusted inoculum suspension was diluted in MHBII so that each well contained approximately 5 × 10^5 c.f.u. ml^−1 in a final volume of 100 µl. Then, 95 µl of the inoculum was applied per well and 5 µl of the (diluted) albicidins was added. For dilutions, the dry powders were dissolved in dimethylsulfoxide (DMSO) with a concentration of 2.56 mg ml^−1, and the obtained stock solutions were further diluted in DMSO. Next, 5 µl of each antibiotic dilution was applied to the microdilution tray to reach final concentrations of 8 to 0.016 µg ml^−1. One row of each well plate served as a growth control without antibiotic and another row of the microdilution tray served as a sterility control (only MHBII media). The antimicrobial effect of the solvent was tested by adding 5 µl DMSO to several wells. Purity check and cell titre control were performed according to International Standard M07-A9 on Mueller–Hinton II Agar. Both microdilution trays and agar plates were incubated at 37 °C for 20 h.

[2] = test system: E. coli BW25113; assay: MIC determination (microdilution, M07-A9); format: cell-based
Method: as §1

[3] = test system: M. luteus DSM1790; assay: MIC determination (microdilution, M07-A9); format: cell-based
Method: as §1

[4] = test system: B. subtilis DSM10; assay: MIC determination (microdilution, M07-A9); format: cell-based; conditions: Bacillus subtilis
Method: as §1

[5] = test system: S. typhimurium TA100; assay: MIC determination (microdilution, M07-A9); format: cell-based
Method: as §1

[6] = test system: E. coli DSM116; assay: MIC determination (microdilution, M07-A9); format: cell-based; conditions: Escherichia coli, DSM116, E. coli DSM116, read-out: MIC
Method: as §1

[7] = target: T1, WT E. coli gyrase (Escherichia coli, UniProt P0AES4+P0AES6); assay: biochemical; format: biochemical; conditions: for % maximal cleavage: GyraseWT, average of 3 independent assays; for EC50: Gyrase^WT, mean ± s.d. of triplicate, read-out: CC50 (the source's name)
T1 construct: alternative cryo-EM approach involving full-length E. coli gyrase; 10-His (cleaved yes); Twin-Strep (cleaved yes); made in house
Method: For DNA gyrase supercoiling assays to characterize gyrase mutants, 15 µl reactions were set up containing 250 ng of relaxed DNA, E. coli gyrase supercoiling buffer (35 mM Tris–Cl pH 7.5, 24 mM KCl, 4 mM MgCl2, 2 mM DTT, 1.8 mM spermidine, 1 mM ATP, 6.0% (w/v) glycerol, and 0.1 mg ml^−1 BSA), gyrase subunits and inhibitors. Concentrations of enzyme and inhibitor are stated in the figure legends. Inhibitors were diluted in the following way to reduce the chance of precipitation: stock compound in 100% DMSO was diluted to 5 mM in 100% DMSO. This compound solution was diluted to 1 mM by stepwise addition of 1 µl of 50% DMSO with thorough mixing via pipetting after each addition. All subsequent dilutions up to 100 µM were performed in the same way using H2O. After this point, compounds were stable and could be diluted in the normal way. Reactions were incubated at 37 °C for 30 min before stopping with 15 µl chloroform:isoamyl alcohol (24:1 v/v) and 15 µl of STEB (40% (w/v) sucrose, 100 mM Tris–Cl pH 8, 10 mM EDTA, 0.5 mg ml^−1 bromophenol blue).
Cleavage assays were set up in the same way as supercoiling assays with some modifications. The concentration of enzyme was increased 4-fold relative to the supercoiling assay and reactions were incubated for 1 h before addition of 0.2% SDS and proteinase K (0.2 mg ml^−1) and further incubation at 37 °C for 30 min to trap cleavage complexes. Reactions were stopped in the same way as supercoiling assays.
(§2) Results were visualized by agarose gel electrophoresis: 1% agarose Tris-acetate-EDTA (TAE) gels were run without ethidium bromide (supercoiling) or with 10 µg ml^−1 ethidium bromide (cleavage) at 8 V cm^−1.
DNA cleavage gels were analysed using densitometry (ImageJ). Experiments were carried out in triplicate and expressed as mean ± s.d. Curves were fitted using OriginPro 2021 (Origin Lab) according to a modified Hill equation:1 y=cI+(cF−cI)[…]/(k^n+x^n) where y is the percentage of cleaved DNA, cI is the initial cleavage, cF is the final cleavage, k is the CC50 (the concentration of inhibitor that results in cleavage of 50% of DNA), n is a slope factor and x is the inhibitor concentration.

[8] = target: E. coli Topo IV (Escherichia coli, UniProt P0AFI2+P20083); assay: Topo IV cleavage assay (cleavage complex stabilization); format: biochemical; conditions: for concentration at which a linear DNA band could be observed: Topo IV cleavage complex stabilization, tested 0.1, 1, 10, 100 µM; for stabilization of the cleavage complex with Topo IV: in words
Method: Topo IV cleavage assays were set up in the same way as relaxation assays with some modifications. The concentration of enzyme was increased by 20% and cleavage complexes were trapped by the addition of 0.2% SDS and proteinase K (0.2 mg ml^−1) and further incubation at 37 °C for 30 min. Reactions were stopped in the same way as supercoiling assays.
as §2
Supplementary Figure 11. Activity of albicidin and Albi-1/2/3 on E. coli […]
Cleavage activity of E. coli topo IV in the presence of albicidin, Albi-1, Albi-2 and Albi-3. First lane: negatively supercoiled pBR322; second lane: innate cleavage activity of E. coli topo IV (15 nM); third lane: effect of 20 µM CFX; subsequent lanes: effect of increasing compound concentration (0.1, 1, 10, 100 µM). […]
concentration. All experiments were carried out in triplicates and representative gels […]
(1 picture or pasted object on this page, not shown here)

[9] = test system: selected Gram-negative and Gram-positive microorganisms; assay: MIC activity groups over all tested strains; format: cell-based; parameters: key: a: most potent; b: intermediate; least active; conditions: MIC panel
Method: as §1

[10] = first value in cell (biological replicate)
[11] = second value in cell (biological replicate)
[12] = E. coli BW25113, second value in cell (biological replicate)
[13] = Escherichia coli, BW25113, E. coli strain not named, read-out: MIC for E. coli
[14] = Escherichia coli, E. coli BW25113, first value in cell (biological replicate), read-out: MIC
[15] = Micrococcus luteus, first value in cell (biological replicate), read-out: MIC
[16] = Salmonella enterica, first value in cell (biological replicate), read-out: MIC

T1 sequence (P0AES4 whole entry, one chain of several): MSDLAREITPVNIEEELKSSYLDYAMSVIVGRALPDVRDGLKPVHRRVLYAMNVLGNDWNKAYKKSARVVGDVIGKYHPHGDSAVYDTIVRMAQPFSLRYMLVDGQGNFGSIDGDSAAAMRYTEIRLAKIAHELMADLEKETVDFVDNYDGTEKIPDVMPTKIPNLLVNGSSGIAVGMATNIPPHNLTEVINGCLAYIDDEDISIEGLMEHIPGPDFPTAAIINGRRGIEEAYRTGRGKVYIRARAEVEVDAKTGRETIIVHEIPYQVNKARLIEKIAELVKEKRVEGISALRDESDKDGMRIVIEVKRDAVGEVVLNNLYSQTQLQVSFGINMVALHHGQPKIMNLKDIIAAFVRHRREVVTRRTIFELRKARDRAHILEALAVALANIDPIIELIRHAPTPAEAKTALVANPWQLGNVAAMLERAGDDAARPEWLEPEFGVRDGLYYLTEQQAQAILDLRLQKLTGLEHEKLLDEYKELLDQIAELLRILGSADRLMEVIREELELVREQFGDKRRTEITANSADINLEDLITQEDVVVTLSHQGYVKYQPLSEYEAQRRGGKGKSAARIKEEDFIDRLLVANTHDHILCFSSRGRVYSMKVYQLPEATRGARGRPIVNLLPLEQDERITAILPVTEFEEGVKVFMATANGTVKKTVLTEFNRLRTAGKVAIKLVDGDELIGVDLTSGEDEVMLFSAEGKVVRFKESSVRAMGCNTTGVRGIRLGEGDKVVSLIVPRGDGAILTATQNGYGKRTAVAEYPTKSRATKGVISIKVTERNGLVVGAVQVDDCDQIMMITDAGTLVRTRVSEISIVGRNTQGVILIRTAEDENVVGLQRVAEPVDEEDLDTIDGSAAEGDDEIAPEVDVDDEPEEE
Chain of E. coli Topo IV (P0AFI2 whole entry): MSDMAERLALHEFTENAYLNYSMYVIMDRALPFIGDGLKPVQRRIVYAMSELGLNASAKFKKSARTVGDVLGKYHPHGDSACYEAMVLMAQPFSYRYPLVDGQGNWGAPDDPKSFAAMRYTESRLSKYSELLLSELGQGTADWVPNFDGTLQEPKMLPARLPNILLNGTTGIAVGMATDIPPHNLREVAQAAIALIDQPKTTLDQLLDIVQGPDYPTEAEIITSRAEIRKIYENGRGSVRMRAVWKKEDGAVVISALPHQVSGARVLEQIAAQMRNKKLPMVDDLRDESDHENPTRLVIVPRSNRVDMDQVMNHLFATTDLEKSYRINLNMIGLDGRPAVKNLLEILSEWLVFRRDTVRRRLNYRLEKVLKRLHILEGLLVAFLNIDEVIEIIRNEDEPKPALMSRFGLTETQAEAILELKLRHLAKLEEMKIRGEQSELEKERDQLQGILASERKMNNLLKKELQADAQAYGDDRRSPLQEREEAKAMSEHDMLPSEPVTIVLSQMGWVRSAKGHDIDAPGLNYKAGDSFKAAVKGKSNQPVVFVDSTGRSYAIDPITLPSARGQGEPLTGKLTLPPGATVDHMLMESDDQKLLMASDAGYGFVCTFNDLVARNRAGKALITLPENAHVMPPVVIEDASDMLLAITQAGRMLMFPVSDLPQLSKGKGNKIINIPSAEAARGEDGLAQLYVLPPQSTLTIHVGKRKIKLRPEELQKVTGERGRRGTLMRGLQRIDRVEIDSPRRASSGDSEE
Chain of E. coli Topo IV (P20083 whole entry): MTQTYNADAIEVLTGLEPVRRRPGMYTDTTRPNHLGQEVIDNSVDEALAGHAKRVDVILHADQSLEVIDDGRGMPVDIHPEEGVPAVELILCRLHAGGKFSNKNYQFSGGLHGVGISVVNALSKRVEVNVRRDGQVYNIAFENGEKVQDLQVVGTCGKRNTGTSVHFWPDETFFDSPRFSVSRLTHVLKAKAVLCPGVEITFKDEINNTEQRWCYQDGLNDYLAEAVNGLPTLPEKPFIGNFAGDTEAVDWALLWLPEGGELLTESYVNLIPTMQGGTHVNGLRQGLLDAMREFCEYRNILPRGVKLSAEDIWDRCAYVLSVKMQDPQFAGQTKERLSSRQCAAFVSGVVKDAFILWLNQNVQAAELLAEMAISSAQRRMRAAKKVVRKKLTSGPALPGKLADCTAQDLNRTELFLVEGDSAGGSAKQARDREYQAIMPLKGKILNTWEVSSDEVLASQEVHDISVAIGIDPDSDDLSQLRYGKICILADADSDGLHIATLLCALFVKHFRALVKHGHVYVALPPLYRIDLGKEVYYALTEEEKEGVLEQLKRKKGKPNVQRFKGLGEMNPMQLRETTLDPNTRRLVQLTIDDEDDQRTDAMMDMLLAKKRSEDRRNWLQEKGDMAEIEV

| Structure (SMILES) | MIC [1, 10] | MIC [1, 11] | MIC [2, 12] | MIC [2, 13] | MIC [2, 14] | MIC [3, 15] | MIC [3, 11] | MIC [4, 10] | MIC [4, 11] | MIC [5, 16] | MIC [5, 11] | MIC [6, 10] | MIC [6, 11] | % maximal cleavage [7] | EC50 [7] | concentration at which a linear DNA band could be observed [8] | stabilization of the cleavage complex with Topo IV [8] | activity group (superscript letter) [9] | other results |
| --- | --- | --- | --- | --- | --- | --- | --- | --- | --- | --- | --- | --- | --- | --- | --- | --- | --- | --- | --- |
| CC(C)Oc1c(NC(=O)c2ccc(NC(=O)[C@H](Cc3c[nH]nn3)NC(=O)c3ccc(NC(=O)c4ccc(C#N)cc4)cn3)cn2)ccc(C(=O)Nc2ccc(C(=O)O)cc2)c1O [Albi-1] | 0.25 µg/mL (≈ 0.298 µM) | 0.5 µg/mL (≈ 0.597 µM) | <0.016 <0.016 µg ml^−1 | ≤ 0.016 µg/mL | < 0.016 µg/mL | < 0.016 µg/mL | <0.016 <0.016 µg ml^−1 | 0.031 µg/mL (≈ 0.037 µM) | 0.063 µg/mL (≈ 0.0752 µM) | < 0.016 µg/mL | <0.016 <0.016 µg ml^−1 | 0.031 µg/mL (≈ 0.037 µM) | 0.031 µg/mL (≈ 0.037 µM) | 73±6% | 8 ± 2.7 nM | 1 µM | could stabilize the cleavage complex | Albi-1^a |  |
| COc1c(NC(=O)c2ccc(NC(=O)c3ccc(NC(=O)[C@H](Cc4c[nH]nn4)NC(=O)c4ccc(NC(=O)c5ccc6cc(O)ccc6c5)cc4)cn3)c(OCCN)c2O)ccc(C(=O)O)c1O [Albi-2] | > 8 µg/mL | > 8 µg/mL | 4.0 µg/mL (≈ 4.32 µM) | 4 µg/mL (≈ 4.32 µM) | 4 µg/mL (≈ 4.32 µM) | > 8 µg/mL | >8.0 >8.0 µg ml^−1 | > 8 µg/mL | > 8 µg/mL | 0.5 µg/mL (≈ 0.541 µM) | 0.5 µg/mL (≈ 0.541 µM) | 2 µg/mL (≈ 2.16 µM) | 4 µg/mL (≈ 4.32 µM) | 78±2% |  |  |  | Albi-2^b | increase in MIC for E. coli compared with the parent compound ([2]; vs albicidin): 60 fold |
| COc1c(NC(=O)c2ccc(NC(=O)c3ccc(NC(=O)[C@H](Cc4c[nH]nn4)NC(=O)c4ccc(NC(=O)c5ccc6nc(C)ccc6c5)cc4)cn3)c(OC)c2O)ccc(C(=O)O)c1O [Albi-3] | 0.5 µg/mL (≈ 0.559 µM) | 1 µg/mL (≈ 1.12 µM) | <0.016 <0.016 µg ml^−1 | < 0.016 µg/mL | < 0.016 µg/mL | 0.063 µg/mL (≈ 0.0704 µM) | 0.063 µg/mL (≈ 0.0704 µM) | 0.063 µg/mL (≈ 0.0704 µM) | 0.125 µg/mL (≈ 0.14 µM) | < 0.016 µg/mL | <0.016 <0.016 µg ml^−1 | < 0.016 µg/mL | < 0.016 µg/mL | 66±4% | 25 ± 5.3 nM |  | could stabilize the cleavage complex |  | % cleaved DNA Average ([7]; Albi-3 0.001 µM, WT Gyrase): 5.372%; % cleaved DNA Average ([7]; Albi-3 0.005 µM, WT Gyrase): 11.5375%; % cleaved DNA Average ([7]; Albi-3 0.01 µM, WT Gyrase): 23.6152%; % cleaved DNA Average ([7]; Albi-3 0.05 µM, WT Gyrase): 37.3347%; % cleaved DNA Average ([7]; Albi-3 0.1 µM, WT Gyrase): 57.4394%; % cleaved DNA Average ([7]; Albi-3 0.5 µM, WT Gyrase): 62.8438%; % cleaved DNA Average ([7]; Albi-3 1 µM, WT Gyrase): 66.0682%; % cleaved DNA Average ([7]; Albi-3 5 µM, WT Gyrase): 61.2004%; % cleaved DNA Average ([7]; Albi-3 10 µM, WT Gyrase): 61.7202% |
| COc1c(NC(=O)c2ccc(NC(=O)c3ccc(NC(=O)[C@H](CC#N)NC(=O)c4ccc(NC(=O)/C(C)=C/c5ccc(O)cc5)cc4)cc3)c(OC)c2O)ccc(C(=O)O)c1O [Albicidin] | 2 µg/mL (≈ 2.37 µM) | 2 µg/mL (≈ 2.37 µM) | 0.063 µg/mL (≈ 0.0747 µM) |  | 0.063 µg/mL (≈ 0.0747 µM) | 1 µg/mL (≈ 1.19 µM) | 1.0 µg/mL (≈ 1.19 µM) | < 0.25 µg/mL | 0.25 µg/mL (≈ 0.297 µM) | 0.063 µg/mL (≈ 0.0747 µM) |  | 0.063 µg/mL (≈ 0.0747 µM) | 0.063 µg/mL (≈ 0.0747 µM) | 81±2% | 46 ± 3.7 nM | 10 µM | could stabilize the cleavage complex | Albicidin^a | % cleaved DNA Average ([7]; albicidin 0.0005 µM, average of replicates): 3.748%; % cleaved DNA Average ([7]; albicidin 0.0025 µM, average of replicates): 5.277%; % cleaved DNA Average ([7]; albicidin 0.005 µM, average of replicates): 6.761%; % cleaved DNA Average ([7]; albicidin 0.01 µM, average of replicates): 11.8941%; % cleaved DNA Average ([7]; albicidin 0.025 µM, average of replicates): 24.028%; % cleaved DNA Average ([7]; albicidin 0.05 µM, average of replicates): 56.851%; % cleaved DNA Average ([7]; albicidin 0.1 µM, average of replicates): 62.7758%; % cleaved DNA Average ([7]; albicidin 0.25 µM, average of replicates): 75.7465%; % cleaved DNA Average ([7]; albicidin 0.5 µM, average of replicates): 79.6286%; % cleaved DNA Average ([7]; albicidin 1 µM, average of replicates): 76.3016%; % cleaved DNA Average ([7]; albicidin 10 µM, average of replicates): 81.3635% |
